Values of other authors as cited in patent EP0163237A2, “Di- and tri-peptidal renin inhibitors” (Merck & Co., Inc., priority 1984, dated 1985).
Where a SMILES comes first, the peptide text is derived from it. [ ]: non-standard residue; d: D form. The star is where a group is joined. Sta = CC(C)C[C@H](N)[C@@H](O)CC(=O)O; Isovaleryl = CC(C)CC(=O)*

System: hog renin
Conditions: after the injection of hog renin into nephrectomized rats

CC(C)CC(=O)N[C@H](C(=O)N[C@H](C(=O)N[C@@H](CC(C)C)[C@@H](O)CC(=O)N[C@@H](C)C(=O)N[C@@H](CC(C)C)[C@@H](O)CC(=O)O)C(C)C)C(C)C [pepstatin] (Isovaleryl-VV[Sta]A[Sta]-OH)
blood pressure in vivo: reduce blood pressure
